Measurements reported in patent publication US20070224155A1, “Cleansing compositions and methods of reducing skin irritation” (ACCESS BUSINESS GROUP INTERNATIONAL, LLC, priority 2006, published 2007).

Test system: IL-1 alpha
Experiment: IL-1 alpha assay: ELISA of IL-1α secreted by fibroblast/keratinocyte co-cultures exposed to a surfactant irritant with or without mildness agent
Assay type: cell-based, human
Details: hand dishwashing detergent; for Percent IL-1 α Reduction AVG: average of 1%, 0.1% and 0.01%
From the text: IL-1 alpha is one cytokine often released near the beginning of the inflammation cascade, which ultimately leads to a human biological response resulting in visible and/or perceptual signs of irritation. Accordingly, by reducing the initial response to an irritant, such as a surfactant, the ultimate damaging reaction can be reduced, prevented, and/or eliminated.
The procedure for conducting IL-1 alpha assays is as follows: Co-cultures of fibroblasts and keratinocytes, the primary cell types found in skin, are established using 100,000 fibroblasts and 200,000 keratinocytes per well. These types of cells are those found in the outer layers of the skin exposed to detergent during every day use. An irritant, for example the surfactant package used in a dish detergent (Example 1 below), is then applied to the coculture wells to initiate the production and secretion of pro-inflammatory cytokines by the cells. One such cytokine is human interleukin-1 alpha or IL-1α. In the body, this protein is a key mediator of the host response to infections and various inflammatory challenges. Once produced, IL-1α stimulates production of other pro-inflammatory cytokines and bioactive molecules. Together, these biological molecules send the message that something is wrong and the keratinocytes and fibroblasts need help. This is called the inflammatory response.
The amount of secreted IL-1α is directly related to the intensity of the inflammatory response. In vitro, the concentration of IL-1α secreted by the co-culture cells in response to the irritant can be measured via a precise laboratory technique known as an Enzyme Linked Immuno-Sorbent Assay or ELISA. Thus, to test botanical materials for mildness, a lessening of IL-1α secretion, the mildness agents were added with the chemical irritant. When a reduction in IL-1α expression was observed, the mildness agents were successful. Theoretically, there are several mechanisms by which this could have been achieved at the cellular level. Without wishing to be bound to a particular theory or in any way limit the scope of the appended claims or their equivalents, it is presently believed that these mechanisms may include one or more of the following: the mildness agent could block the transcription of the DNA to RNA, translation of the RNA to protein, and/or release of the IL-1α from the cells. […] The mildness agent may also have stopped the cascade after the irritant works on the cell. Whatever the mechanism, the net result is the same. There is less IL-1α released by the cells which correlates to inhibition of events in the inflammatory cascade and ultimately, less inflammation.
These were prepared using a serial dilution technique: 1.0 g botanical was mixed well with 99.0 g dish detergent to give the 1.0% formulation; next, 10.0 g of the 1.0% solution was mixed well with 90.0 g of the dish detergent to give the 0.1% formulation; finally, 10.0 g of the 0.1% solution was mixed well with 90.0 g of the dish detergent to give the 0.01% formulation.

[1] = botanical concentration 0.01% by weight
[2] = botanical concentration 0.1% by weight
[3] = botanical concentration 1% by weight

Compound	Percent IL-1 α Reduction AVG	Percent IL-1 α Reduction [1]	Percent IL-1 α Reduction [2]	Percent IL-1 α Reduction [3]
O=C(O)c1ccccc1O.O[SiH2]O [D.S.B.C., silanediol salicylate]	12.42%	7.46%	13.07%	16.74%
N[C@@H](CCC(=O)O)C(=O)NCCc1c[nH]c2ccccc12 [GLISTIN, glutaurylamidoethyl indole]	22.63%	18.50%	31.80%	17.60%
